One may read the inhibition as the change of the read-out against control, counted positive when it falls. As a reminder, the CC50 is the concentration that lowers cell viability or growth by half. Low values mean harm at low concentration, high ones better tolerance by the cells.

This note sets out measurements from patent US9540343B2 (Gilead Sciences, Inc., priority 2011, dated 2017).

In one data set the test system is HIV-IIIb. Put plainly: Test A: Antiviral assay in MT4 cells. Format: cell-based, HIV-1. The note with it: Human immunodeficiency virus 1, IIIB, MT4, 120 h, read-out: % inhibition at 2 μM, percent inhibition of virus-induced cell killing, from dose response curve at 2 uM drug; MT-4 cells infected with HIV-IIIb, 5 days, CellTiter-Glo. (In general: Cellular ATP, detected with luciferase, serves as a proxy for viable cell number.)

The nature of a further data set: in vitro. The method, boiled down: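 Cytoprotection read-out: CellTiter-Glo chemiluminescence after 5 days at 37 °C of HIV-IIIb-infected MT-4 cells (m.o.i. 0.003) with compound in 10-point 3-fold dilutions, quadruplicate, 10% FBS. Cytotoxicity (CC50) measured identically without virus.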
Setting [1] is: human, uninfected MT-4 cells, CC50 (nM), same protocol as Test A, CellTiter-Glo.

As for `NC(=O)c1cccc(-c2cccnc2[C@H](Cc2cc(F)cc(F)c2)NC(=O)CC2C(=O)Nc3ccc(F)cc32)c1` (stereo partly drawn) [Example 196, 3-(2-((1S)-2-(3,5-difluorophenyl)-1-(2-(5-fluoro-2-oxoindolin-3-yl)acetamido)ethyl)pyridin-3-yl)benzamide], in the data set with HIV-IIIb, the inhibition at 2 µM came out at 2%. Further, it took 29600 nM to reach half-maximal cytotoxicity in “in vitro” (setting [1]) (CC50 at 5 days).
For `NC(=O)c1cc(-c2ccc[n+]([O-])c2[C@H](Cc2cc(F)cc(F)c2)NC(=O)Cn2nc(C(F)(F)F)c3c2CCS(=O)(=O)C3)ccc1F` [Example 197, (S)-3-(3-carbamoyl-4-fluorophenyl)-2-(2-(3,5-difluorophenyl)-1-(2-(5,5-dioxido-3-(trifluoromethyl)-6,7-dihydrothiopyrano[4,3-c]pyrazol-1(4H)-yl)acetamido)ethyl)pyridine-1-oxide], in that order: 0% and greater than 53200 nM.
For `NC(=O)c1cc(-c2cccnc2[C@H](Cc2cc(F)cc(F)c2)NC(=O)Cn2nc(C(F)F)c3c2CC2CC32)ccc1F` (stereo partly drawn) [Example 198, 5-(2-((1S)-1-(2-(3-(difluoromethyl)-3b,4,4a,5-tetrahydro-1H-cyclopropa[3,4]cyclopenta[1,2-c]pyrazol-1-yl)acetamido)-2-(3,5-difluorophenyl)ethyl)pyridin-3-yl)-2-fluorobenzamide] the same measures were 112% and 45900 nM.
For `NC(=O)c1cc(-c2cccnc2[C@H](Cc2cc(F)cc(F)c2)NC(=O)Cn2nc(C(F)(F)F)c3c2CC2C3C2(F)F)ccc1F` (stereo partly drawn) [Example 199E, 5-(2-((1S)-1-(2-(4,4-difluoro-3-(trifluoromethyl)-3b,4,4a,5-tetrahydro-1H-cyclopropa[3,4]cyclopenta[1,2-c]pyrazol-1-yl)acetamido)-2-(3,5-difluorophenyl)ethyl)pyridin-3-yl)-2-fluorobenzamide], the inhibition at 2 µM with HIV-IIIb amounted to 18%. This molecule also yielded a CC50 at 5 days in the data set “in vitro” (setting [1]) of 9520 nM.
For `NC(=O)c1cc(-c2cccnc2[C@H](Cc2cc(F)cc(F)c2)NC(=O)Cn2nc3c(c2C(F)(F)F)CNC3)ccc1F` [Example 200B, (S)-5-(2-(2-(3,5-difluorophenyl)-1-(2-(3-(trifluoromethyl)-5,6-dihydropyrrolo[3,4-c]pyrazol-2(4H)-yl)acetamido)ethyl)pyridin-3-yl)-2-fluorobenzamide] the same measures were 0% and greater than 53200 nM.
Turning to `NC(=O)c1cc(-c2cccnc2[C@H](Cc2cc(F)cc(F)c2)NC(=O)Cc2cc(=O)[nH]c3ccccc23)ccc1F` [Example 201, (S)-5-(2-(2-(3,5-difluorophenyl)-1-(2-(2-oxo-1,2-dihydroquinolin-4-yl)acetamido)ethyl)pyridin-3-yl)-2-fluorobenzamide], the inhibition at 2 µM in the data set on HIV-IIIb is 8%. This molecule also gave a CC50 at 5 days in the data set “in vitro” (setting [1]) greater than 53200 nM.
For `COc1ccc2c(c1)C(CC(=O)N[C@@H](Cc1cc(F)cc(F)c1)c1ncccc1-c1ccc(F)c(C(N)=O)c1)C(=O)N2` (stereo partly drawn) [Example 202, 5-(2-((1S)-2-(3,5-difluorophenyl)-1-(2-(5-methoxy-2-oxoindolin-3-yl)acetamido)ethyl)pyridin-3-yl)-2-fluorobenzamide], in that order: 1% and greater than 53200 nM.
For `NC(=O)c1cc(-c2cccnc2[C@H](Cc2cc(F)cc(F)c2)NC(=O)Cn2nc3c(c2C(F)(F)F)COC3)ccc1F` [Example 203D, (S)-5-(2-(2-(3,5-difluorophenyl)-1-(2-(3-(trifluoromethyl)-4,6-dihydro-2H-furo[3,4-c]pyrazol-2-yl)acetamido)ethyl)pyridin-3-yl)-2-fluorobenzamide] the same measures were 0% and greater than 53200 nM.
For `NC(=O)c1cc(-c2cccnc2[C@H](Cc2cccc(F)c2)NC(=O)Cn2nc(C(F)(F)F)c3c2CCS(=O)(=O)C3)ccc1F` [Example 204, (S)-5-(2-(1-(2-(5,5-dioxido-3-(trifluoromethyl)-6,7-dihydrothiopyrano[4,3-c]pyrazol-1(4H)-yl)acetamido)-2-(3-fluorophenyl)ethyl)pyridin-3-yl)-2-fluorobenzamide], in that order: 1% and greater than 53200 nM.
With `Cc1cc(C)c2c(c1)C(CC(=O)N[C@@H](Cc1cc(F)cc(F)c1)c1ncccc1-c1ccc(F)c(C(N)=O)c1)C(=O)N2` (stereo partly drawn) [Example 205, 5-(2-((1S)-2-(3,5-difluorophenyl)-1-(2-(5,7-dimethyl-2-oxoindolin-3-yl)acetamido)ethyl)pyridin-3-yl)-2-fluorobenzamide], the inhibition at 2 µM with HIV-IIIb came to 12%. The molecule further showed a CC50 at 5 days in “in vitro” (setting [1]) of 13100 nM.
In the case of `O=C(Cn1nc(C(F)F)c2c1C(F)(F)C1CC21)N[C@@H](Cc1cc(F)cc(F)c1)c1ncccc1-c1ccc(OCC2CC2)cc1` (stereo partly drawn) [Example 206, N—((S)-1-(3-(4-(cyclopropylmethoxy)phenyl)pyridin-2-yl)-2-(3,5-difluorophenyl)ethyl)-2-(3-(difluoromethyl)-5,5-difluoro-3b,4,4a,5-tetrahydro-1H-cyclopropa[3,4]cyclopenta[1,2-c]pyrazol-1-yl)acetamide], the inhibition at 2 µM with HIV-IIIb was found to be 54%. In addition, the CC50 at 5 days in the data set “in vitro” (setting [1]) came to 20000 nM.
With `CC(C)Cc1cc(C(F)(F)F)nn1CC(=O)N[C@@H](Cc1cc(F)cc(F)c1)c1ncccc1-c1ccc(F)c(C(N)=O)c1` [Example 207C, (S)-5-(2-(2-(3,5-difluorophenyl)-1-(2-(5-isobutyl-3-(trifluoromethyl)-1H-pyrazol-1-yl)acetamido)ethyl)pyridin-3-yl)-2-fluorobenzamide], the inhibition at 2 µM with HIV-IIIb is 16%. This molecule came in with a CC50 at 5 days in “in vitro” (setting [1]) of 13200 nM.
As to `COCc1cc(C(F)(F)F)nn1CC(=O)N[C@@H](Cc1cc(F)cc(F)c1)c1ncccc1-c1ccc(F)c(C(N)=O)c1` [Example 208D], the inhibition at 2 µM in the data set on HIV-IIIb turned out to be 2%. Besides, in the data set “in vitro” (human, CC50 (nM), uninfected MT-4 cells, same protocol as Test A, CellTiter-Glo), the CC50 at 5 days was greater than 53200 nM.
In the case of `NC(=O)c1cc(-c2cccnc2[C@H](Cc2cc(F)cc(F)c2)NC(=O)Cn2nc(C(N)=O)c3c2CC2CC32)ccc1F` (stereo partly drawn) [Example 209, 1-(2-(((S)-1-(3-(3-carbamoyl-4-fluorophenyl)pyridin-2-yl)-2-(3,5-difluorophenyl)ethyl)amino)-2-oxoethyl)-3b,4,4a,5-tetrahydro-1H-cyclopropa[3,4]cyclopenta[1,2-c]pyrazole-3-carboxamide], in the data set with HIV-IIIb, the inhibition at 2 µM was found to be 51%. In addition, the CC50 at 5 days in “in vitro” (setting [1]) was greater than 53200 nM.
For `CN1Cc2nn(CC(=O)N[C@@H](Cc3cc(F)cc(F)c3)c3ncccc3-c3ccc(F)c(C(N)=O)c3)c(C(F)(F)F)c2C1` [Example 210, (S)-5-(2-(2-(3,5-difluorophenyl)-1-(2-(5-methyl-3-(trifluoromethyl)-5,6-dihydropyrrolo[3,4-c]pyrazol-2(4H)-yl)acetamido)ethyl)pyridin-3-yl)-2-fluorobenzamide] the same measures were 0% and greater than 53200 nM.
For `N#Cc1nn(CC(=O)N[C@@H](Cc2cc(F)cc(F)c2)c2ncccc2-c2ccc(F)c(C(N)=O)c2)c2c1CCC2` [Example 211C, (S)-5-(2-(1-(2-(3-cyano-5,6-dihydrocyclopenta[c]pyrazol-1(4H)-yl)acetamido)-2-(3,5-difluorophenyl)ethyl)pyridin-3-yl)-2-fluorobenzamide], in that order: 83% and 36100 nM.
For the molecule `NC(=O)c1cc(-c2cccnc2[C@H](Cc2cc(F)cc(F)c2)NC(=O)Cn2nc(C(F)F)c3c2C(O)C2CC32)ccc1F` (stereo partly drawn) [Example 212, 5-(2-((1S)-1-(2-(3-(difluoromethyl)-5-hydroxy-3b,4,4a,5-tetrahydro-1H-cyclopropa[3,4]cyclopenta[1,2-c]pyrazol-1-yl)acetamido)-2-(3,5-difluorophenyl)ethyl)pyridin-3-yl)-2-fluorobenzamide], in the data set with HIV-IIIb, the inhibition at 2 µM came out at 69%. In “in vitro” (setting [1]), this molecule returned a CC50 at 5 days greater than 53200 nM.
For the molecule `NC(=O)c1cc(-c2cccnc2[C@H](Cc2cccc(F)c2)NC(=O)Cn2nc(C(F)(F)F)c3ccccc32)ccc1F` [Example 213C, (S)-2-fluoro-5-(2-(2-(3-fluorophenyl)-1-(2-(3-(trifluoromethyl)-1H-indazol-1-yl)acetamido)ethyl)pyridin-3-yl)benzamide], the inhibition at 2 µM in the data set on HIV-IIIb turned out to be 14%. This molecule showed a half-maximal cytotoxic concentration (CC50) at 5 days in “in vitro” (setting [1]) of 15900 nM.
For `NC(=O)c1cc(-c2cccnc2[C@H](Cc2cc(F)cc(F)c2)NC(=O)Cc2cccc3ccccc23)ccc1F` [Example 214, (S)-5-(2-(2-(3,5-difluorophenyl)-1-(2-(naphthalen-1-yl)acetamido)ethyl)pyridin-3-yl)-2-fluorobenzamide] the same measures were 8% and 22200 nM.
For `COCCOc1ccc(-c2cccnc2[C@H](Cc2cc(F)cc(F)c2)NC(=O)Cn2nc(C(F)F)c3c2C(F)(F)C2CC32)cc1` (stereo partly drawn) [Example 217, 2-(3-(difluoromethyl)-5,5-difluoro-3b,4,4a,5-tetrahydro-1H-cyclopropa[3,4]cyclopenta[1,2-c]pyrazol-1-yl)-N—((S)-2-(3,5-difluorophenyl)-1-(3-(4-(2-methoxyethoxy)phenyl)pyridin-2-yl)ethyl)acetamide] the same measures were 92% and 29600 nM.
Turning to `NC(=O)c1cc(-c2ccc[n+]([O-])c2[C@H](Cc2cc(F)cc(F)c2)NC(=O)Cn2nc(C(F)(F)F)c3c2CS(=O)(=O)C3)ccc1F` [Example 218, (S)-3-(3-carbamoyl-4-fluorophenyl)-2-(2-(3,5-difluorophenyl)-1-(2-(5,5-dioxido-3-(trifluoromethyl)-4,6-dihydro-1H-thieno[3,4-c]pyrazol-1-yl)acetamido)ethyl)pyridine 1-oxide], the inhibition at 2 µM in the data set with HIV-IIIb came out at 0%. Also, the CC50 at 5 days in the data set “in vitro” (setting [1]) is greater than 53200 nM.
